The text below walks through data of US5750354A, “Lipoxin transport system and uses therefor” (priority 1994, dated 1998).

Structures are written as SMILES. Where “and” joins values, the source holds several entries; their conditions need not be identical. Identical values can stand only once. Entries after “also recorded” stand apart in the source; their conditions may differ. Like-named read-outs stand apart in the source and are kept apart here.

The test system of data set [1] is lipoxin transport system. Briefly: [3H]LXA4 influx into human neutrophils (unidirectional tracer flux). Particulars: for [3H]LXA4 Influx in presence of eicosanoid / IC50: uptake at 10 and 20 min; for initial [3H]LXA4 influx rate in presence of drug: 5 nM LXA4; for effect on uptake of [3H]LXA4: each at 0.2-0.5 mM; for IC50: read-out: K0.5, concentration at which 50% of lipoxin transport is inhibited, drug 0-500 μM, Michaelis-Menten inhibition kinetics.

Data set [2] concerns lipoxin transport system. Particulars: not told.
The test system of data set [3] is human neutrophils. In words: [3H]LXA4 methyl ester influx into human neutrophils. It is filed as cell-based. To be noted: for effect of drugs on [3H]LXA4 ME influx: DISA 0.5 mM, PCP 0.4 mM, mersalyl 0.5 mM. As for the experimental part: Incubations were performed at 37° C. in capped, plastic tubes (Falcon Plastics, Oxnard, Calif.) under various experimental conditions (neutrophils 15-20×10^6 /ml). […] At stated intervals, duplicate aliquots of the cell suspensions were layered onto 0.5 ml of silicone oil (Versilube F-5, General Electric Corp., Waterford, N.Y.) contained in 1.5 ml plastic tubes and centrifuged for 1 min at 8,000 g in a microcentrifuge (Beckman Instruments, Fullerton, Calif.).
The aqueous and oil phases were aspirated and discarded. […] Influx is expressed here as fmol/10^6 cells/min whereas flux rates in all previous work from our laboratory (L.S.) have been reported in meq/liter of cell water.min.
(§1) Influx rates were calculated by fitting the data points to a single exponential equation (Eq. 1). Results have been taken from three experiments based upon duplicate determinations. […] Specific binding was taken as the difference between total and non-specific binding. […] Results are from three separate experiments, each performed in triplicate.

For data set [4], the system named is human neutrophils.
Data set [5] concerns the target T1, specific lipoxin receptors (Homo sapiens, UniProt P25090).
T1 sequence (P25090 1-351): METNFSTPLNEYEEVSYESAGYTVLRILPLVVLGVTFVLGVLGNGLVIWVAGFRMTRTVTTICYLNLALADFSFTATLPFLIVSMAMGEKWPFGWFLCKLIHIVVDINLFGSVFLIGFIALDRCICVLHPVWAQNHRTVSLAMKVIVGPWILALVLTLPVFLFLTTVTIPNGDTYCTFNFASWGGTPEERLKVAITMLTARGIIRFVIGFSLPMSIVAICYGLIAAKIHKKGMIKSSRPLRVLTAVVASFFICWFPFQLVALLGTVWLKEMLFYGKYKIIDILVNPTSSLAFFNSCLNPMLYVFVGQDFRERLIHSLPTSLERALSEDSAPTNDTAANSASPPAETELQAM
Briefly: [3H]LXA4 ligand binding to human neutrophils. The protocol:
as §1

For data set [6], the system named is lipoxin transport system. Briefly: Irreversible inhibition of [3H]LXA4 influx after pretreatment of neutrophils with sulfhydryl-reactive agents. It is filed as cell-based, human.
[7] abbreviates: combined: 0.5 mM mersalyl, pHo 6.40.
The mark [8] stands for this setting: combined: 0.5 mM DISA, 0.4 mM PCP, pHo 8.40.

Take `CCCCCCCCCCCCCC(=O)O[C@@H]1[C@@H](C)[C@@]2(O)[C@@H](C=C(CO)C[C@]3(O)C(=O)C(C)=C[C@@H]23)[C@@H]2C(C)(C)[C@]12OC(C)=O` [PMA, phorbol myristate acetate]: in the data set on lipoxin transport system [1] (100 nM), the “increase in initial rate of [3H]LXA4 influx” value is recorded as ~ 4 fold.

With `CCCCC/C=C\C[C@@H](O)/C=C/C=C/C=C\[C@@H](O)CCCC(=O)O` [LTB4, (5S,12R)-dihydroxy-6,14-cis-8,10-trans-eicosatetraenoic acid], the entries for the “[3H]LXA4 Influx in presence of eicosanoid” value (from here on “[3H]LXA4 Influx in presence”) in the data set on lipoxin transport system [1] (eicosanoid 10 nM), in the data set with lipoxin transport system [1] (eicosanoid 30 nM) and with lipoxin transport system [1] (eicosanoid 100 nM) were 0.67 ± 0.04 fmol/10^6 cells/min, 0.64 ± 0.04 fmol/10^6 cells/min and 0.70 ± 0.06 fmol/10^6 cells/min, respectively. Besides, the “transport by the lipoxin transport system” value in the data set with lipoxin transport system [2] is “not transported”.

`O=C(O)CI` [iodoacetate, iodoacetic acid]: the “effect of SH-reactive compounds on [3H]LXA4 influx” value with lipoxin transport system [1] (1 mM NEM, 0.4 mM iodoacetate) is “lacked efficacy; also recorded: do not inhibit”.

As to `CCCCC/C=C\C\C=C/C=C/C=C/[C@@H](SC[C@H](N)C(=O)NCC(=O)O)[C@@H](O)CCCC(=O)O` [LTD4, (5S)-hydroxy-(6R)-S-cysteinylglycyl-7,9-trans-11,14-ciseicosatetraenoic acid], the entries for the “[3H]LXA4 Influx in presence” value with lipoxin transport system [1] (eicosanoid 10 nM), in the data set on lipoxin transport system [1] (eicosanoid 30 nM) and with lipoxin transport system [1] (eicosanoid 100 nM) were 0.63 ± 0.03 fmol/10^6 cells/min, 0.59 ± 0.04 fmol/10^6 cells/min and 0.61 ± 0.03 fmol/10^6 cells/min, respectively. In addition, the “transport by the lipoxin transport system” value in the data set on lipoxin transport system [2] is listed as “not transported”.

As for `CCCCC[C@H](O)/C=C/[C@H]1[C@H](O)CC(=O)[C@@H]1C/C=C\CCCC(=O)O` [PGE2, prostaglandin E2], the “[3H]LXA4 Influx in presence” value in the data set with lipoxin transport system [1] (eicosanoid 10 nM) was found to be 0.58 ± 0.03 fmol/10^6 cells/min; in the data set with lipoxin transport system [1] (eicosanoid 30 nM), 0.59 ± 0.03 fmol/10^6 cells/min; with lipoxin transport system [1] (eicosanoid 100 nM) it was 0.60 ± 0.03 fmol/10^6 cells/min.

As for `COC(CNC(=O)c1ccccc1OCC(=O)O)[CH2][Hg][OH]` (centres unmarked) [mersalyl], in the data set with lipoxin transport system [1] (0.5 mM drug), the “inhibition of [3H]LXA4 influx” value is 82% and > 80%; the “initial [3H]LXA4 influx rate in presence of drug” value (shortened to “initial [3H]LXA4 influx rate”) was determined as 0.10±0.01 fmol/10^6 cells/min. Also, in the data set on lipoxin transport system [1], the “effect on uptake of [3H]LXA4” value is listed as “inhibited the uptake” and the IC50 was determined as 112 ± 33 µM. Also, in the data set on human neutrophils [3] (0.5 mM drug), the “[3H]LXA4 ME Influx in presence of drug” value came out at 500 ± 184 fmol/10^6 cells/min. For the same molecule, the “effect of drugs on [3H]LXA4 ME influx” value with human neutrophils [3] is given as “completely resistant”. Further, in the data set with human neutrophils [4] (setting [7]), the “efflux final value (relative cell content, combined data)” value was found to be 0.56±0.03 and the “efflux rate coefficient (combined data)” value was 0.079 ± 0.012 min⁻¹. In data set [5], the “effect on binding of lipoxin to specific receptors” value (from here on “effect on binding of lipoxin”) is given as “not inhibitable”. Further, the “[3H]LXA4 Binding, non-specific, in presence of drug” value in data set [5] (0.5 mM drug, + unlabeled LXA4 0.3 μM) is listed as 0.39 ± 0.03 fmol/10^6 cells. In addition, the “[3H]LXA4 Binding, total, in presence of drug” value in data set [5] (0.5 mM drug, no unlabeled LXA4) came out at 1.13 ± 0.05 fmol/10^6 cells. Besides, in the data set on lipoxin transport system [6], the “% Inhibition of Transport (irreversible)” value is ~ 65% and 67 ± 5%.

On to `CCCCC[C@H](O)/C=C/C=C\C/C=C\C/C=C\CCCC(=O)O` [15-HETE, (15S)-hydroxy-5,8,11-cis-13-trans-eicosatetraenoic acid], for which the “[3H]LXA4 Influx in presence” value in the data set with lipoxin transport system [1] (eicosanoid 10 nM) came to 0.73 ± 0.05 fmol/10^6 cells/min; in the data set with lipoxin transport system [1] (eicosanoid 30 nM) it was 0.69 ± 0.05 fmol/10^6 cells/min; with lipoxin transport system [1] (eicosanoid 100 nM), 0.71 ± 0.06 fmol/10^6 cells/min.

Regarding `CCCCC/C=C\C/C=C\C/C=C\C/C=C\CCCC(=O)O` [Arachidonic Acid, arachidonic acid], the figures for the “[3H]LXA4 Influx in presence” value in the data set on lipoxin transport system [1] (eicosanoid 10 nM), in the data set on lipoxin transport system [1] (eicosanoid 30 nM) and in the data set on lipoxin transport system [1] (eicosanoid 100 nM) were 0.69 ± 0.03 fmol/10^6 cells/min, 0.66 ± 0.02 fmol/10^6 cells/min and 0.70 ± 0.02 fmol/10^6 cells/min, respectively.

For the molecule `CCCCC/C=C\C\C=C/C=C/C=C/[C@@H](SC[C@H](NC(=O)CC[C@H](N)C(=O)O)C(=O)NCC(=O)O)[C@@H](O)CCCC(=O)O` [LTC4, (5S)-hydroxy-(6R)-S-glutathionyl-7,9-trans-11,14-cis-eicosatetraenoic acid], the results for the “[3H]LXA4 Influx in presence” value in the data set on lipoxin transport system [1] (eicosanoid 10 nM), in the data set with lipoxin transport system [1] (eicosanoid 30 nM) and in the data set on lipoxin transport system [1] (eicosanoid 100 nM) were 0.70 ± 0.05 fmol/10^6 cells/min, 0.76 ± 0.05 fmol/10^6 cells/min and 0.78 ± 0.07 fmol/10^6 cells/min, respectively. Besides, the “transport by the lipoxin transport system” value in the data set with lipoxin transport system [2] is “not transported”.

Turning to `N#CC(=Cc1cn(-c2ccccc2)c2ccccc12)C(=O)O` [UK-5099, α-cyano-β-(1-phenylindol-3-yl)acrylic acid], in the data set on lipoxin transport system [1] (0.2 mM drug), the “inhibition of [3H]LXA4 influx” value is given as 95% and the “initial [3H]LXA4 influx rate” value is on record as 0.030±0.009 fmol/10^6 cells/min. For the same molecule, the “effect on uptake of [3H]LXA4” value in the data set on lipoxin transport system [1] is listed as “inhibited the uptake”. Further, the “effect on binding of lipoxin” value in data set [5] is “not inhibitable”.

Take `Oc1c(Cl)c(Cl)c(Cl)c(Cl)c1Cl` [PCP, pentachlorophenol]: in the data set with lipoxin transport system [1] (0.4 mM drug), the “inhibition of [3H]LXA4 influx” value was 97% and > 80%; the “initial [3H]LXA4 influx rate” value was 0.015±0.004 fmol/10^6 cells/min. Besides, in the data set with lipoxin transport system [1], the “effect on uptake of [3H]LXA4” value is on record as “inhibited the uptake” and the IC50 came out at 25 ± 5 µM. In the data set on human neutrophils [3] (0.4 mM drug), the “[3H]LXA4 ME Influx in presence of drug” value is 439 ± 63 fmol/10^6 cells/min. Also, in the data set on human neutrophils [3], the “effect of drugs on [3H]LXA4 ME influx” value is “completely resistant”. Moreover, in the data set with human neutrophils [4] (setting [8]), the “efflux final value (relative cell content, combined data set)” value was 0.46±0.02 and the “efflux rate coefficient (combined data set)” value turned out to be 0.098 ± 0.008 min⁻¹. For the same molecule, in data set [5], the “[3H]LXA4 Binding, non-specific, in presence of drug” value came to 0.36 ± 0.04 fmol/10^6 cells; the “[3H]LXA4 Binding, total, in presence of drug” value stood at 1.18 ± 0.04 fmol/10^6 cells; the “effect on binding of lipoxin” value is recorded as “not inhibitable”.

Consider `O=C1OC2(c3ccc(N4C(=O)C=CC4=O)cc31)c1cc(Br)c(O)c(Br)c1Oc1c2cc(Br)c(O)c1Br` [Eosin-5-maleimide, eosin-5-maleimide], for which the “% Inhibition of Transport (irreversible)” value in the data set on lipoxin transport system [6] (0.50 mM, pretreatment 30 min at 4° C., washed, influx at 37° C.) was determined as 19 ± 6%.

Turning to `O=C(O)c1ccccc1Nc1ccccc1` [diphenylamine-2-carboxylate, diphenylamine-2-carboxylic acid], the “inhibition of [3H]LXA4 influx” value in the data set on lipoxin transport system [1] (0.5 mM drug) is greater than 85%.

Regarding `O=C(O)c1cccnc1Nc1cccc(C(F)(F)F)c1` [niflumate, niflumic acid], in the data set on lipoxin transport system [1] (0.2 mM drug), the “inhibition of [3H]LXA4 influx” value is on record as greater than 85%.

As for `CCCCCCCCCCCCCC(=O)O[C@@H]1[C@@H](C)[C@@]2(O)[C@@H](C=C(CO)C[C@@]3(O)C(=O)C(C)=C[C@@H]23)[C@@H]2C(C)(C)[C@]12OC(C)=O` [4-α-PMA], the “effect on lipoxin uptake” value with lipoxin transport system [1] (biologically inactive isomer of PMA) is on record as “no effect”.

On to `CCCCC[C@H](O)/C=C/C=C\C=C\C=C\[C@@H](O)[C@@H](O)CCCC(=O)OC` [LXA4 ME, lipoxin A4 methyl ester], for which the “[3H]LXA4 ME Influx” value in the data set with human neutrophils [3] (Medium, 5 nM, 37° C., 15 s intervals through 1 min) is listed as 535±136 fmol/10^6 cells/min; in the data set on human neutrophils [3] (pHo 6.40), 465 ± 45 fmol/10^6 cells/min; with human neutrophils [3] (pHo 8.40), 553 ± 129 fmol/10^6 cells/min. In addition, in the data set with human neutrophils [3] (medium alone), the “influx rate relative to LXA4 free acid” value was 1,000 fold faster.

As for `CNc1ccc2oc(C[C@H]3O[C@@]4(CC[C@H]3C)O[C@H]([C@H](C)C(=O)c3ccc[nH]3)[C@H](C)C[C@H]4C)nc2c1C(=O)O` [A23187], the “enhancement of lipoxin uptake” value in the data set with lipoxin transport system [1] (1 μM) was ~ 1.5 fold.
